# Laboratory results as given in PubChem BioAssay AID272 (DTP/NCI, 2004).
# “And” between values parts separate entries of the source, which are not always exact repeats. Identical values can stand only once. Inconclusive results are not listed.
# Test system: Lewis lung carcinoma i.m., BDF1 mice, T/C %
# Experiment: NCI In Vivo Anticancer Drug Screen. Data for tumor model Lewis Lung Carcinoma (intramuscular) in B6D2F1 (BDF1) mice
# Procedure, shortened: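 Value is the ratio of a treated-group measurement (T) to the matching vehicle-control measurement (C), using either survival or tumour size in mice bearing transplanted tumours.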
# [1] = endpoint: mean tumor weight (est.), dose: 50.0 mg/kg/injection, schedule: Q01DX011 (ip), vehicle: saline with Tween-80, higher = larger tumour
# [2] = endpoint: mean tumor weight (est.), dose: 100.0 mg/kg/injection, schedule: Q01DX011 (ip), vehicle: saline with Tween-80, higher = larger tumour
# [3] = endpoint: median survival time, dose: 50.0 mg/kg/injection, schedule: Q01DX011 (ip), vehicle: saline with Tween-80, higher = longer survival
# [4] = endpoint: median survival time, dose: 1.0 mg/kg/injection, schedule: Q01DX011 (ip), vehicle: saline, higher = longer survival
smiles,measurement,setting,value
Cc1c2c(cc3c1[nH]c1ccccc13)C(c1ccc(Cl)cc1)=NCC2,T/C,"endpoint: mean tumor weight (est.), dose: 75.0 mg/kg/injection, schedule: Q01DX011 (ip), vehicle: saline with Tween-80, higher = larger tumour",54 % of control
same,T/C,"endpoint: mean tumor weight (est.), dose: 150.0 mg/kg/injection, schedule: Q01DX011 (ip), vehicle: saline with Tween-80, higher = larger tumour",41 % of control
same,T/C,"endpoint: mean tumor weight (est.), dose: 300.0 mg/kg/injection, schedule: Q01DX011 (ip), vehicle: saline with Tween-80, higher = larger tumour",40 % of control
same,T/C,"endpoint: median survival time, dose: 75.0 mg/kg/injection, schedule: Q01DX011 (ip), vehicle: saline with Tween-80, higher = longer survival",100 % of control
same,T/C,"endpoint: median survival time, dose: 150.0 mg/kg/injection, schedule: Q01DX011 (ip), vehicle: saline with Tween-80, higher = longer survival",92 % of control
same,T/C,"endpoint: median survival time, dose: 300.0 mg/kg/injection, schedule: Q01DX011 (ip), vehicle: saline with Tween-80, higher = longer survival",111 % of control
OCCNC1c2ccccc2-c2ccccc21,T/C,"endpoint: mean tumor weight (est.), dose: 25.0 mg/kg/injection, schedule: Q01DX011 (ip), vehicle: saline with Tween-80, higher = larger tumour",90 % of control
same,T/C,[1],91 % of control
same,T/C,[2],67 % of control
same,T/C,[3],112 % of control
O=C1N[C@@H]([C@H]2CC[C@H](Cl)CN2)C(=O)N[C@H]1[C@H]1CC[C@H](Cl)CN1,T/C,"endpoint: mean tumor weight, dose: 0.5 mg/kg/injection, schedule: Q01DX011 (ip), vehicle: saline, higher = larger tumour",67 % of control and 92 % of control
same,T/C,"endpoint: mean tumor weight, dose: 1.0 mg/kg/injection, schedule: Q01DX011 (ip), vehicle: saline, higher = larger tumour",65 % of control and 87 % of control
same,T/C,"endpoint: mean tumor weight, dose: 2.0 mg/kg/injection, schedule: Q01DX011 (ip), vehicle: saline, higher = larger tumour",42 % of control and 64 % of control
same,T/C,"endpoint: median survival time, dose: 0.5 mg/kg/injection, schedule: Q01DX011 (ip), vehicle: saline, higher = longer survival",105 % of control and 116 % of control
same,T/C,[4],95 % of control and 119 % of control
CC(=O)[O][Hg][c]1s[c]([Hg][O]C(C)=O)[c]([Hg][O]C(C)=O)[c]1[Hg][O]C(C)=O,T/C,"endpoint: mean tumor weight (est.), dose: 6.25 mg/kg/injection, schedule: Q01DX011 (ip), vehicle: saline, higher = larger tumour",45 % of control
same,T/C,"endpoint: mean tumor weight (est.), dose: 12.5 mg/kg/injection, schedule: Q01DX011 (ip), vehicle: saline, higher = larger tumour",37 % of control
same,T/C,"endpoint: median survival time, dose: 12.5 mg/kg/injection, schedule: Q01DX011 (ip), vehicle: saline, higher = longer survival",91 % of control
OC(C1CO1)C(O)C1CO1 (stereo not given),T/C,[4],110 % of control
same,T/C,"endpoint: median survival time, dose: 2.0 mg/kg/injection, schedule: Q01DX011 (ip), vehicle: saline, higher = longer survival",108 % of control
same,T/C,"endpoint: median survival time, dose: 3.0 mg/kg/injection, schedule: Q01DX011 (ip), vehicle: saline, higher = longer survival",114 % of control
COc1ccc2nc3cc(Cl)ccc3c(NCCO)c2c1,T/C,"endpoint: mean tumor weight (est.), dose: 34.37 mg/kg/injection, schedule: Q01DX011 (ip), vehicle: saline with Tween-80, higher = larger tumour",19 % of control
same,T/C,"endpoint: mean tumor weight (est.), dose: 68.75 mg/kg/injection, schedule: Q01DX011 (ip), vehicle: saline with Tween-80, higher = larger tumour",55 % of control
same,T/C,"endpoint: median survival time, dose: 34.36 mg/kg/injection, schedule: Q01DX011 (ip), vehicle: saline with Tween-80, higher = longer survival",91 % of control
same,T/C,"endpoint: median survival time, dose: 68.75 mg/kg/injection, schedule: Q01DX011 (ip), vehicle: saline with Tween-80, higher = longer survival",96 % of control
OC(CBr)C(O)C(O)C(O)CBr (stereo not given),T/C,"endpoint: mean tumor weight (est.), dose: 50.0 mg/kg/injection, schedule: Q01DX011 (ip), vehicle: Klucel (hydroxypropylcellulose) (HPC), higher = larger tumour",61 % of control
same,T/C,"endpoint: mean tumor weight (est.), dose: 100.0 mg/kg/injection, schedule: Q01DX011 (ip), vehicle: Klucel (hydroxypropylcellulose) (HPC), higher = larger tumour",59 % of control
same,T/C,"endpoint: mean tumor weight (est.), dose: 200.0 mg/kg/injection, schedule: Q01DX011 (ip), vehicle: Klucel (hydroxypropylcellulose) (HPC), higher = larger tumour",44 % of control
same,T/C,"endpoint: mean tumor weight, dose: 25.0 mg/kg/injection, schedule: Q01DX011 (ip), vehicle: Klucel (hydroxypropylcellulose) (HPC), higher = larger tumour",85 % of control
same,T/C,"endpoint: mean tumor weight, dose: 50.0 mg/kg/injection, schedule: Q01DX011 (ip), vehicle: Klucel (hydroxypropylcellulose) (HPC), higher = larger tumour",70 % of control
same,T/C,"endpoint: mean tumor weight, dose: 100.0 mg/kg/injection, schedule: Q01DX011 (ip), vehicle: Klucel (hydroxypropylcellulose) (HPC), higher = larger tumour",93 % of control
same,T/C,"endpoint: mean tumor weight, dose: 125.0 mg/kg/injection, schedule: Q01DX011 (ip), vehicle: Klucel (hydroxypropylcellulose) (HPC), higher = larger tumour",101 % of control
same,T/C,"endpoint: mean tumor weight, dose: 200.0 mg/kg/injection, schedule: Q01DX011 (ip), vehicle: Klucel (hydroxypropylcellulose) (HPC), higher = larger tumour",72 % of control
same,T/C,"endpoint: mean tumor weight, dose: 250.0 mg/kg/injection, schedule: Q01DX011 (ip), vehicle: Klucel (hydroxypropylcellulose) (HPC), higher = larger tumour",100 % of control
same,T/C,"endpoint: mean tumor weight, dose: 400.0 mg/kg/injection, schedule: Q01DX011 (ip), vehicle: Klucel (hydroxypropylcellulose) (HPC), higher = larger tumour",55 % of control
same,T/C,"endpoint: median survival time, dose: 25.0 mg/kg/injection, schedule: Q01DX011 (ip), vehicle: Klucel (hydroxypropylcellulose) (HPC), higher = longer survival",94 % of control
same,T/C,"endpoint: median survival time, dose: 50.0 mg/kg/injection, schedule: Q01DX011 (ip), vehicle: Klucel (hydroxypropylcellulose) (HPC), higher = longer survival",111 % of control
same,T/C,"endpoint: median survival time, dose: 125.0 mg/kg/injection, schedule: Q01DX011 (ip), vehicle: Klucel (hydroxypropylcellulose) (HPC), higher = longer survival",93 % of control
same,T/C,"endpoint: median survival time, dose: 200.0 mg/kg/injection, schedule: Q01DX011 (ip), vehicle: Klucel (hydroxypropylcellulose) (HPC), higher = longer survival",97 % of control and 112 % of control
same,T/C,"endpoint: median survival time, dose: 250.0 mg/kg/injection, schedule: Q01DX011 (ip), vehicle: Klucel (hydroxypropylcellulose) (HPC), higher = longer survival",100 % of control
same,T/C,"endpoint: median survival time, dose: 400.0 mg/kg/injection, schedule: Q01DX011 (ip), vehicle: Klucel (hydroxypropylcellulose) (HPC), higher = longer survival",94 % of control
C[C@@H]1O[C@@H](O[C@H]2CC[C@]3(C=O)[C@H]4CC[C@]5(C)[C@@H](c6ccc(=O)oc6)CC[C@]5(O)[C@@H]4CC[C@]3(O)C2)[C@H](O)[C@H](O)[C@H]1O[C@@H]1O[C@H](CO)[C@@H](O)[C@H](O)[C@H]1O,T/C,"endpoint: mean tumor weight (est.), dose: 0.63 mg/kg/injection, schedule: Q01DX011 (ip), vehicle: saline, higher = larger tumour",80 % of control
same,T/C,"endpoint: mean tumor weight (est.), dose: 1.25 mg/kg/injection, schedule: Q01DX011 (ip), vehicle: saline, higher = larger tumour",89 % of control
same,T/C,"endpoint: median survival time, dose: 0.63 mg/kg/injection, schedule: Q01DX011 (ip), vehicle: saline, higher = longer survival",108 % of control
same,T/C,"endpoint: median survival time, dose: 1.25 mg/kg/injection, schedule: Q01DX011 (ip), vehicle: saline, higher = longer survival",98 % of control
Cc1cc2nc(CBr)c(CBr)nc2cc1C,T/C,"endpoint: mean tumor weight (est.), dose: 0.75 mg/kg/injection, schedule: Q01DX011 (ip), vehicle: saline with Tween-80, higher = larger tumour",87 % of control
same,T/C,"endpoint: mean tumor weight (est.), dose: 1.5 mg/kg/injection, schedule: Q01DX011 (ip), vehicle: saline with Tween-80, higher = larger tumour",76 % of control
same,T/C,"endpoint: mean tumor weight (est.), dose: 3.0 mg/kg/injection, schedule: Q01DX011 (ip), vehicle: saline with Tween-80, higher = larger tumour",67 % of control
same,T/C,"endpoint: mean tumor weight (est.), dose: 6.0 mg/kg/injection, schedule: Q01DX011 (ip), vehicle: saline with Tween-80, higher = larger tumour",48 % of control
same,T/C,"endpoint: median survival time, dose: 0.75 mg/kg/injection, schedule: Q01DX011 (ip), vehicle: saline with Tween-80, higher = longer survival",100 % of control
same,T/C,"endpoint: median survival time, dose: 1.5 mg/kg/injection, schedule: Q01DX011 (ip), vehicle: saline with Tween-80, higher = longer survival",101 % of control
same,T/C,"endpoint: median survival time, dose: 3.0 mg/kg/injection, schedule: Q01DX011 (ip), vehicle: saline with Tween-80, higher = longer survival",86 % of control
same,T/C,"endpoint: median survival time, dose: 6.0 mg/kg/injection, schedule: Q01DX011 (ip), vehicle: saline with Tween-80, higher = longer survival",107 % of control
CCCSc1ncnc2nc[nH]c12,T/C,"endpoint: mean tumor weight, dose: 25.0 mg/kg/injection, schedule: Q01DX011 (ip), vehicle: other, higher = larger tumour",80 % of control
same,T/C,"endpoint: median survival time, dose: 25.0 mg/kg/injection, schedule: Q01DX011 (ip), vehicle: other, higher = longer survival",102 % of control
CC(C(=O)O)N1C(=O)c2ccccc2C1=O (stereo not given),T/C,"endpoint: median survival time, dose: 4.0 mg/kg/injection, schedule: Q01DX009 (ip), vehicle: water, higher = longer survival",110 % of control
same,T/C,"endpoint: median survival time, dose: 8.0 mg/kg/injection, schedule: Q01DX009 (ip), vehicle: water, higher = longer survival",107 % of control
same,T/C,"endpoint: median survival time, dose: 16.0 mg/kg/injection, schedule: Q01DX009 (ip), vehicle: water, higher = longer survival",103 % of control
same,T/C,"endpoint: median survival time, dose: 32.0 mg/kg/injection, schedule: Q01DX009 (ip), vehicle: water, higher = longer survival",108 % of control
O=C(Nc1ccc(S(=O)(=O)O)cc1)c1ccc([N+](=O)[O-])cc1,T/C,"endpoint: mean tumor weight (est.), dose: 3.5 mg/kg/injection, schedule: Q01DX011 (ip), vehicle: saline, higher = larger tumour",87 % of control
same,T/C,"endpoint: mean tumor weight (est.), dose: 7.0 mg/kg/injection, schedule: Q01DX011 (ip), vehicle: saline, higher = larger tumour",120 % of control
same,T/C,"endpoint: mean tumor weight (est.), dose: 14.0 mg/kg/injection, schedule: Q01DX011 (ip), vehicle: saline, higher = larger tumour",94 % of control
same,T/C,"endpoint: mean tumor weight (est.), dose: 28.0 mg/kg/injection, schedule: Q01DX011 (ip), vehicle: saline, higher = larger tumour",82 % of control
same,T/C,"endpoint: median survival time, dose: 3.5 mg/kg/injection, schedule: Q01DX011 (ip), vehicle: saline, higher = longer survival",92 % of control
same,T/C,"endpoint: median survival time, dose: 7.0 mg/kg/injection, schedule: Q01DX011 (ip), vehicle: saline, higher = longer survival",96 % of control
same,T/C,"endpoint: median survival time, dose: 14.0 mg/kg/injection, schedule: Q01DX011 (ip), vehicle: saline, higher = longer survival",105 % of control
same,T/C,"endpoint: median survival time, dose: 28.0 mg/kg/injection, schedule: Q01DX011 (ip), vehicle: saline, higher = longer survival",117 % of control
COc1cc(OC)c(OC)cc1/C=C\c1ccnc2ccccc12,T/C,[1],60 % of control
same,T/C,[2],51 % of control
same,T/C,"endpoint: mean tumor weight (est.), dose: 200.0 mg/kg/injection, schedule: Q01DX011 (ip), vehicle: saline with Tween-80, higher = larger tumour",56 % of control
same,T/C,"endpoint: mean tumor weight (est.), dose: 400.0 mg/kg/injection, schedule: Q01DX011 (ip), vehicle: saline with Tween-80, higher = larger tumour",34 % of control
same,T/C,[3],105 % of control
same,T/C,"endpoint: median survival time, dose: 100.0 mg/kg/injection, schedule: Q01DX011 (ip), vehicle: saline with Tween-80, higher = longer survival",103 % of control
same,T/C,"endpoint: median survival time, dose: 200.0 mg/kg/injection, schedule: Q01DX011 (ip), vehicle: saline with Tween-80, higher = longer survival",86 % of control
same,T/C,"endpoint: median survival time, dose: 400.0 mg/kg/injection, schedule: Q01DX011 (ip), vehicle: saline with Tween-80, higher = longer survival",100 % of control
